Experiments:
Mus musculus = assay: Tested for antagonism of NMDA induced lethality in neonatal mice (ip) and minimum effective dose (MED) was reported; format: functional; conditions: read-out: MED
Glutamate NMDA receptor [1] = assay: Compound was evaluated in vitro in a cortical-wedge preparation for the antagonism of N-methyl-D-aspartate-induced responses; format: functional
Rattus norvegicus = assay: Tested for antagonism of NMDA induced convulsions in neonatal rats (ip) and minimum effective dose (MED) was reported; format: functional; conditions: read-out: MED
Glutamate NMDA receptor [2] = assay: In vitro binding affinity against N-methyl-D-aspartate glutamate receptor using [3H]CGS-19,755 ligand; format: protein-complex assay

O=C(O)[C@@H]1C[C@H](CCCc2nn[nH]n2)CCN1
minimal effective dose (Mus musculus): 10 mg/kg
IC50 (Glutamate NMDA receptor [1]): 12.4 µM
minimal effective dose (Rattus norvegicus): 100 mg/kg

O=C(O)[C@@H]1C[C@H](CP(=O)(O)O)CCN1 [SELFOTEL]
minimal effective dose (Mus musculus): 1.25 mg/kg
IC50 (Glutamate NMDA receptor [1]): 1.7 µM
minimal effective dose (Rattus norvegicus): 5 mg/kg

CN1CC[C@H](Cc2nn[nH]n2)C[C@@H]1C(=O)O
minimal effective dose (Mus musculus): > 160 mg/kg
IC50 (Glutamate NMDA receptor [2]): > 10 µM

O=C(O)[C@H]1C[C@@H](Cc2nnn[nH]2)CCN1
minimal effective dose (Mus musculus): 5 mg/kg
IC50 (Glutamate NMDA receptor [1]): 4.2 µM
minimal effective dose (Rattus norvegicus): 20 mg/kg

O=C(O)[C@H]1C[C@H](Cc2nn[nH]n2)CCN1
minimal effective dose (Mus musculus): 80 mg/kg
IC50 (Glutamate NMDA receptor [1]): 35.2 µM
IC50 (Glutamate NMDA receptor [2]): 0.777 µM

O=C(O)[C@@H]1C[C@H](CCc2nn[nH]n2)CCN1
minimal effective dose (Mus musculus): 20 mg/kg
IC50 (Glutamate NMDA receptor [1]): 8.1 µM
IC50 (Glutamate NMDA receptor [2]): 2.28 µM
minimal effective dose (Rattus norvegicus): 100 mg/kg

O=C(O)[C@@H]1C[C@H](CCCCc2nn[nH]n2)CCN1
minimal effective dose (Mus musculus): > 160 mg/kg
IC50 (Glutamate NMDA receptor [2]): > 10 µM

— ChEMBL document CHEMBL1125760, “4-(Tetrazolylalkyl)piperidine-2-carboxylic acids. Potent and selective N-methyl-D-aspartic acid receptor antagonists with a short duration of action” (J Med Chem, 1991)
